US7342133B2, “Substituted amino compounds as 5-HT/NA uptake inhibitors” (Gruenenthal GmbH, priority 2004, dated 2008)

What was measured:
[1] = test system: duration of the phase of immobility; assay: Antidepressant activity in the forced swimming test (Porsolt test) in the mouse; format: in vivo; conditions: for Relative duration of the phase of immobility versus control: i.p.
Experimental: d) Study of Antidepressant Activity in the Forced Swimming Test (Porsolt Test) in the Mouse The studies to determine the antidepressant activity of the compounds of formula I according to the invention were carried out in the forced swimming test (Porsolt test) in the mouse (Porsolt, R. et al., Arch. Int. Pharmacodyn. Vol. 229, p. 327-336 (1977)). Male mice (20-25 g body weight) were placed individually for a period of 6 minutes into a flat water tank from which they were unable to escape and accordingly were forced to swim. After some time, the animals gave up their attempts to swim and entered a phase of immobility. In the interval of from 2 to 6 minutes after introduction of the animal, the duration of the phase of immobility was determined. Test substance and vehicle groups each comprise 10 animals. Changes in the duration of the phase of immobility are stated relative to the vehicle control. Antidepressants induce a shortening of the phase of immobility.

NA reuptake = assay: Inhibition of NA reuptake in rat brain synaptosomes (P2 fraction, hypothalamus); format: biochemical; conditions: for Ki: hypothalamus, Ki from IC50 by Cheng-Prusoff
Experimental: (§1) a) Studies of the inhibition of 5-HT and NA reuptake
(§2) In order to be able to carry out these in vitro studies, synaptosomes are freshly isolated from areas of rat brain. A so-called “P2” fraction is used in each case, which is prepared exactly according to the procedure of Gray, E. G. and Whittaker, V. P. (J. Anat. 76, 79-88, 1962). For NA reuptake, these vesicular particles are isolated from the hypothalamus of male rat brains, and for 5-HT reuptake, they are isolated from the medulla +pons region.
(§3) The following characteristic data were determined for the NA and 5-HT reuptake: • NA uptake: Km=0.32±0.11 μM • 5-HT uptake: Km=0.084±0.011 μM (in each case N=4, i.e. mean values ± SEM from 4 independent test series which were carried out in triplicate parallel tests).
(§4) A detailed description of the method can be found in the publication of Frink, M., Hennies, H. H., Englberger, W. et al. (Arzneim.-Forsch./Drug Res. 46 (III), 11, 1029-1036, 1996) (the batch can also be carried out on microtitre plates (250 μl/well) at room temperature).
(§5) In addition to % inhibitions at fixed concentrations of test substance (e.g. 1×10^−6 M or 1×10^−5 M in the batch), dose dependencies were also checked. IC50 values were obtained thereby which can be converted into inhibitor constants (Ki) according to the “Cheng-Prusoff equation” (Cheng, Y. C. and Prusoff, W. H., Biochem. Pharmacol. 22, 3099-3108, 1973). The IC50 values were obtained with the aid of the “Figure P” computer program (Version 6.0, Biosoft, Cambridge, England). Km values were calculated according to Lineweaver, H. and Burk, D. (J. Am. Chem. Soc. 56, 658-666, 1934). The “Ligand” computer program (Version 4, Biosoft, England) was used to show KD values.

[2] = test system: phenylquinone-induced writhing reactions; assay: Analgesic activity in the writhing test in the mouse; format: in vivo
Experimental: c) Studies of Analgesic Activity in the Writhing Test in the Mouse
The writhing test in the mouse is a modification of the method according to Hendershot L C, Forsaith, J, J Pharmacol Exp Ther 125: 237-240 (1959).
0.3 ml/animal of a 0.02% aqueous phenylquinone solution, with the addition of 5% ethanol, is administered intraperitoneally to the animals as pain stimulus. This solution is administered 30 minutes (test substance p.o.) or 10 minutes (test substance i.v.) after administration of the test substance. The pain-induced stretching movements (so-called writhing reactions=straightening of the body with extension of the rear extremities) are recorded 5 to 20 minutes after the administration of phenylquinone. The animals treated with the test substance are compared with a control group that received physiological saline. Size of the group n=10.

[3] = test system: formalin-induced nociceptive behaviour (chronic pain component); assay: Analgesic activity in the formalin test in the mouse; format: in vivo
Experimental: b) Studies of Analgesic Activity in the Formalin Test in the Mouse The formalin test (Dubuisson, D. and Dennis, S. G., 1977, Pain, 4, 161-174) represents a model for acute and chronic pain. In the studies presented here, the chronic pain component was evaluated. By means of a single formalin injection into the dorsal side of a rear paw, a biphase nociceptive reaction is induced in freely mobile test animals; the reaction is assessed by observing three markedly different behaviour patterns. Formalin is injected subcutaneously in a volume of 20 μl and a concentration of 1% into the dorsal side of the right rear paw of each animal. The specific behavioural changes differing from normal behaviour (score 0), such as lifting (score 1) and shaking of the paw (score 2), as well as biting and licking reactions (score 3), are observed and recorded continuously at 3-minute intervals for 60 minutes after the formalin injection. […] The size of the group was 10 animals (n=10). On the basis of the PR calculations, the activity of the substance was determined in percent as the change relative to a control. The ED50 was determined by means of regression analysis.

5-HT reuptake = assay: Inhibition of 5-HT reuptake in rat brain synaptosomes (P2 fraction, medulla + pons region); format: biochemical; conditions: for Ki: medulla + pons, Ki from IC50 by Cheng-Prusoff
Experimental: as §1, §2, §3, §4, §5

Row | SMILES | melting point [°C] | Shortening of the phase of immobility, forced swimming test (in words) [1] | Relative duration of the phase of immobility versus control ([1]; 10 mg/kg) | Relative duration of the phase of immobility versus control ([1]; 21.5 mg/kg) [%] | Relative duration of the phase of immobility versus control ([1]; 31.6 mg/kg, ***p < 0.001) [%***] | Relative duration of the phase of immobility versus control ([1]; 46.4 mg/kg, ***p < 0.001) [%***] | Inhibition of NA reuptake (in words) (NA reuptake) | Ki (NA reuptake) [nM] | Inhibition of the nociceptive behaviour, writhing test (in words) [2] | ED50 ([2]; i.v., phenylquinone i.p.) [mg/kg] | Inhibition of the nociceptive behaviour, formalin test (in words) [3] | ED50 ([3]; iv, chronic pain component) [mg/kg] | Inhibition of 5-HT reuptake (in words) (5-HT reuptake) | Ki (5-HT reuptake) [nM]
1 | CN(C)CC1=C(Cc2ccc(Cl)cc2)CCC1.Cl | 191 | – | – | – | – | – | – | – | – | – | – | – | – | –
2 | CN(C)CC1=C(Cc2ccc(Cl)cc2)CCCCC1.Cl [Example 1, [2-(4-Chlorobenzyl)-cyclohept-1-enylmethyl]-dimethylamine; hydrochloride] | – | significant shortening of the phase of immobility | +9% | −34 | −67 | −76 | dose-dependent inhibition | 30 | dose-dependent inhibition | 3.04 | dose-dependent inhibition | 4.71 | dose-dependent inhibition | 3
3 | CN(C)CC1=C(Cc2ccc(Cl)cc2)CCCCCC1.Cl [Example 2b, [2-(4-chlorobenzyl)-cyclooct-1enylmethyl]-dimethylamine; hydrochloride] | 234 to 237 | – | – | – | – | – | dose-dependent inhibition | 340 | – | – | – | – | dose-dependent inhibition | 30
